Here are results for 2 molecules from patent publication US20160368898A1, “2-PYRIDYLOXY-4-METHYL OREXIN RECEPTOR ANTAGONISTS” (MERCK SHARP & DOHME CORP., priority 2013, published 2016).

The structures appear in SMILES notation.

The target in assay [1] is T1, human orexin-2 receptor (hOX2R) (Homo sapiens, UniProt O43614).
T1 construct: expressed in transfected cells; host or cells: CHO cells (grown under G418)
T1 sequence (O43614 1-444): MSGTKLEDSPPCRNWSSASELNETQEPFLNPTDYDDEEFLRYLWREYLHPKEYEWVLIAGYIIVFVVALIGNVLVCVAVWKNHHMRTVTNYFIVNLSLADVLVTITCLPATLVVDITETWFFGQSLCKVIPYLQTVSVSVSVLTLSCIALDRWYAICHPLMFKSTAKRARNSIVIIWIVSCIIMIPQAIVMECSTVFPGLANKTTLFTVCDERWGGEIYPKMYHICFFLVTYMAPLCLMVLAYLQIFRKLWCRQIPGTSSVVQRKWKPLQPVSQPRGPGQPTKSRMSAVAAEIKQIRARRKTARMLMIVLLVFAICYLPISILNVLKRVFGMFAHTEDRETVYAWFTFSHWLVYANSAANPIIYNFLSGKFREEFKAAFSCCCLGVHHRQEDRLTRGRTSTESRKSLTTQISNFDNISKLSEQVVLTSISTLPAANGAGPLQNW
Description: FLIPR Ca2+ Flux Assay, CHO cells expressing the human orexin-2 receptor. It is filed as cell-based. The note with it: agonist 70 pM Ala-6,12 human orexin-A. The method, then: The utility of the compounds in accordance with the present invention as orexin receptor OX1R and/or OX2R antagonists may be readily determined without undue experimentation by methodology well known in the art, including the “FLIPR Ca^2+ Flux Assay” (Okumura et al., Biochem. Biophys. Res. Comm. 280:976-981, 2001). In a typical experiment the OX1 and OX2 receptor antagonistic activity of the compounds of the present invention was determined in accordance with the following experimental method. For intracellular calcium measurements, Chinese hamster ovary (CHO) cells expressing the rat orexin-1 receptor or the human orexin-2 receptor, are grown in Iscove's modified DMEM containing 2 mM L-glutamine, […], 1% hypoxanthine-thymidine supplement, 100 U/ml penicillin, 100 μg/ml streptomycin and 10% heat-inactivated fetal calf serum (FCS). The cells are seeded at 20,000 cells/well into Becton-Dickinson black 384-well clear bottom sterile plates coated with poly-D-lysine. All reagents were from GIBCO-Invitrogen Corp. The seeded plates are incubated overnight at 37° C. and 5% CO2. Ala-6,12 human orexin-A as the agonist is prepared as a 1 mM stock solution in 1% bovine serum albumin (BSA) and diluted in assay buffer (HBSS containing 20 mM HEPES, 0.1% BSA and 2.5 mM probenecid, pH7.4) for use in the assay at a final concentration of 70 pM. Test compounds are prepared as 10 mM stock solution in DMSO, then diluted in 384-well plates, first in DMSO, then assay buffer. On the day of the assay, cells are washed 3 times with 100 μl assay buffer and then incubated for 60 min (37° C., 5% CO2) in 60 μl assay buffer containing 1 μM Fluo-4AM ester, 0.02% pluronic acid, and 1% BSA. The dye loading solution is then aspirated and cells are washed 3 times with 100 μl assay buffer. 30 μl of that same buffer is left in each well. Within the Fluorescent Imaging Plate Reader (FLIPR, Molecular Devices), test compounds are added to the plate in a volume of 25 μl, incubated for 5 min and finally 25 μl of agonist is added. Fluorescence is measured for each well at 1 second intervals for 5 minutes and the height of each fluorescence peak is compared to the height of the fluorescence peak induced by 70 pM Ala-6,12 orexin-A with buffer in place of antagonist. For each antagonist, IC50 value (the concentration of compound needed to inhibit 50% of the agonist response) is determined. Alternatively, compound potency can be assessed by a radioligand binding assay (described in Bergman et. al. Bioorg. Med. Chem. Lett. 2008, 18, 1425-1430) in which the inhibition constant (Ki) is determined in membranes prepared from CHO cells expressing either the OX1 or OX2 receptor. The intrinsic orexin receptor antagonist activity of a compound which may be used in the present invention may be determined by these assays.
For orientation: Calcium flux is commonly read through the fluorescence of an indicator in the cells.

The target in a further assay is T2, hOX1R (Homo sapiens, UniProt O43613).
T2 construct: expressed in transfected cells; host or cells: CHO cells (grown under G418)
T2 sequence (O43613 1-425): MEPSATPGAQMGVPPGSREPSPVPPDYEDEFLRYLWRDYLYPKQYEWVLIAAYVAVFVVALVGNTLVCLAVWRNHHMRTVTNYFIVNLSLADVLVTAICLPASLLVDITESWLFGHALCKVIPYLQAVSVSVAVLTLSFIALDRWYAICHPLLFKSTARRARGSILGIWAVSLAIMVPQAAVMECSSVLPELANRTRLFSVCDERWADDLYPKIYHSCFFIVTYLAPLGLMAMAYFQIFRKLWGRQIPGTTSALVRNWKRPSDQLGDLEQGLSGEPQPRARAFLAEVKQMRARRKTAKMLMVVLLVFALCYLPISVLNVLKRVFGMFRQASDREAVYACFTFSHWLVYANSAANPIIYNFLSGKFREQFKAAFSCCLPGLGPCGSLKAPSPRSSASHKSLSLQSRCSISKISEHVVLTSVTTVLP
Kind of assay: FLIPR Ca2+ Flux Assay, CHO cells expressing the orexin-1 receptor. The note with it: agonist 70 pM Ala-6,12 human orexin-A. Format: cell-based.

Consider `Cc1ccnc(O[C@@H]2CC[C@@H](C)N(C(=O)c3ccsc3-c3ncccn3)C2)c1` [Example 21, 2-[3-({(2R,5R)-2-methyl-5-[(4-methylpyridin-2-yl)oxy]piperidin-1-yl}carbonyl)thiophen-2-yl]pyrimidine], for which the IC50 in assay [1] stood at 69 nM; at hOX1R it was 2110 nM.

As for `Cc1ccnc(O[C@@H]2CC[C@@H](C)N(C(=O)c3cccc(F)c3-n3nccn3)C2)c1` [Example 13, 2-{[(3R,6R)-1-{[3-fluoro-2-(2H-1,2,3-triazol-2-yl)phenyl]carbonyl}-6-methylpiperidin-3-yl]oxy}-4-methylpyridine], the concentration for half-maximal inhibition (IC50) in assay [1] stood at 26 nM; on hOX1R, 964 nM.

Usually IC50 stands for the concentration that gives 50% inhibition. Low values mean inhibition by little substance, high ones a need for much substance.
